How the values were obtained:
in vivo = settings: male, ICR, mouse, po
Procedure: ICR mice, male, SPF, 3 weeks, weighing from 18 to 22 g were provided by Beijing HFK Bioscience Co., Ltd (Beijing, China).
All mice were housed in plastic lab animal cages in a ventilated room. The room was maintained at 20±2° C. and 60±10% relative humidity with a 12 h light/dark cycle. Water and commercial laboratory complete food for mice were available ad libitum. They were acclimated to this environment for 7 days before treatment. All animal experiments were approved by the Animal Welfare and Research Ethics Committee at Jilin University (Approval ID: SY201905018).
Blood collection. Before blood collection, 30 μL heparin solution was added to 1.5 mL centrifugal tubes and vortexed. The blood samples (about 0.5 mL) was collected by removing one eye of the mice. The blood was centrifuged at 6000 rpm at room temperature for 2 min. The upper plasma was transferred to a new centrifugal tube.
Pharmacokinetic parameters were calculated using a mouse model.

[1] = Physicochemical characterization of PWPC-GSH (particle size, zeta potential, rheology, TEM); settings: GSH alone

N[C@@H](CCC(=O)N[C@@H](CS)C(=O)NCC(=O)O)C(=O)O [GSH, Glutathione]
AUC (in vivo): 19200 ng·h/mL
Cmax (in vivo): 7370 ng/mL
Tmax (in vivo): 2 h
particle size [1]: 287.83±6.18 nm

Source: patent publication US11766407B2, “Polymerized whey protein encapsulated antioxidant compound and a process for preparation of same” (FoodScience Corporation, priority 2020, dated 2023)
